Test systems include Hs-578T; DU-145; PC-3; SF-268; OVCAR-3; MDA-MB-231; K562; T47D; MCF7; OVCAR-5; HCT-116; CCRF-CEM; HT-29; 786-0; UACC-62; IGROV-1; NCI-H460; SNB-75; SF-539; A498.
Holding throughout (assay): growth of human tumour cells (NCI), 48 h

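Grown in 96-well plates, cells were treated for 48 hours with each compound at five concentrations. Insufficient inhibition: endpoint recorded as highest concentration tested. At the GI50, growth is halved.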 Activity calls are given as the source filed them. No stated cut-off is given here; in the data, active = GI50 up to about 1.1 µM and inactive = higher.

Turning to `C=CCN(C(=O)CNC(=O)C(F)(F)F)c1cc(OCc2ccccc2)c2c(c1)c(C)cn2S(=O)(=O)c1ccccc1`, the GI50 in the assay with Hs-578T is > 100 µM (inactive); in the assay with DU-145, > 100 µM (inactive); in the assay with PC-3 it was 5.96 µM (inactive); in the assay with SF-268, 6.59 µM (inactive); in the assay with OVCAR-3, > 49.5 µM (inactive); with MDA-MB-231 it was > 24.1 µM (inactive). The GI50 in the assay with K562 was > 23.9 µM (inactive); in the assay on T47D, 5.93 µM (inactive); in the assay with MCF7 it was 7.57 µM (inactive); in the assay on OVCAR-5 it was > 100 µM (inactive); with HCT-116, 7.66 µM (inactive); with CCRF-CEM, 0.139 µM (active). Besides, the GI50 was > 100 µM (inactive) with HT-29; > 100 µM (inactive) in the assay on 786-0; 6.76 µM (inactive) in the assay with UACC-62; 12.1 µM (inactive) in the assay with IGROV-1; > 30.5 µM (inactive) with NCI-H460; 4.8 µM (inactive) in the assay on SNB-75. Besides, in the assay on SF-539, the GI50 was > 100 µM (inactive).

As for `O=c1c2cc([N+](=O)[O-])cnc2sn1-c1ccc(Oc2ccccc2)cc1`, the GI50 with Hs-578T was 18.6 µM (inactive); in the assay with DU-145 it was 24.8 µM (inactive); in the assay with PC-3 it was 39.9 µM (inactive); in the assay on SF-268, 39.6 µM (inactive); with OVCAR-3, 36 µM (inactive); with MDA-MB-231, 22.1 µM (inactive). The GI50 in the assay with T47D was 10.8 µM (inactive); in the assay on MCF7 it was 35.3 µM (inactive); in the assay on OVCAR-5 it was 58.3 µM (inactive); in the assay on HCT-116 it was 25.2 µM (inactive); in the assay with CCRF-CEM it was 26.9 µM (inactive); with HT-29 it was 62.5 µM (inactive). Further, the GI50 was 43.5 µM (inactive) in the assay on 786-0; 41.7 µM (inactive) with UACC-62; 82.8 µM (inactive) with IGROV-1; 74.1 µM (inactive) in the assay with NCI-H460; 51.6 µM (inactive) with SNB-75; 23.3 µM (inactive) with SF-539.

On to `COc1cc(O)c(C(C)=O)c(O)c1`, for which the GI50 is 62.7 µM (inactive) in the assay with Hs-578T; 64.9 µM (inactive) with DU-145; 60.7 µM (inactive) in the assay on PC-3; 69.8 µM (inactive) with SF-268; > 100 µM (inactive) with OVCAR-3; 18.7 µM (inactive) with K562. The GI50 is 25.6 µM (inactive) with T47D; 37.5 µM (inactive) in the assay on MCF7; 80.5 µM (inactive) in the assay on A498; > 100 µM (inactive) in the assay on OVCAR-5; 55 µM (inactive) in the assay with HCT-116; > 100 µM (inactive) in the assay on HT-29. In addition, the GI50 was > 100 µM (inactive) with 786-0; 46.1 µM (inactive) in the assay with UACC-62; 77.3 µM (inactive) in the assay with IGROV-1; 88.1 µM (inactive) with NCI-H460; 50.8 µM (inactive) in the assay on SNB-75; > 100 µM (inactive) in the assay with SF-539.

Consider `CCC(=O)C1(c2ccccc2)CCN(C)CC1`, for which the GI50 in the assay with Hs-578T, in the assay with DU-145, in the assay with PC-3, with SF-268, with K562 and with T47D was > 100 µM (inactive) each time. Moreover, the GI50 with MCF7, in the assay with A498, in the assay with OVCAR-5, with HCT-116, in the assay with CCRF-CEM and in the assay on HT-29 was > 100 µM (inactive) each time. For the same molecule, the GI50 in the assay on 786-0, in the assay on IGROV-1, in the assay on NCI-H460 and with SNB-75 was > 100 µM (inactive) throughout.

On to `COc1ccc(-c2cc(-c3ccc(Cl)cc3)n(C3OC(CO)C(O)C(O)C3O)c(=S)c2C#N)cc1` (stereo not given), for which the GI50 in the assay on Hs-578T was > 100 µM (inactive); in the assay on DU-145, 4.04 µM (inactive); in the assay on PC-3, > 100 µM (inactive); in the assay on SF-268, 20.6 µM (inactive); with MDA-MB-231, 37.5 µM (inactive); with K562, > 100 µM (inactive). The GI50 in the assay with T47D was 29.2 µM (inactive); in the assay with MCF7, > 10 µM (inactive); in the assay with OVCAR-5 it was 33 µM (inactive); in the assay with HCT-116, 34.2 µM (inactive); with HT-29, 24.2 µM (inactive); with 786-0, 12.5 µM (inactive). The GI50 in the assay on UACC-62 was > 100 µM (inactive); in the assay on IGROV-1, 26.5 µM (inactive); with NCI-H460, 13 µM (inactive); with SNB-75 it was 89.7 µM (inactive); in the assay with SF-539, > 100 µM (inactive).

Consider `COC(=O)c1cccc(C)c1C1CN=NC12Cc1cc(C)cc(C)c1C2=O` (stereo not given), for which the GI50 with Hs-578T was 47 µM (inactive); in the assay with DU-145 it was 41.3 µM (inactive); in the assay on SF-268, 39.8 µM (inactive); in the assay on OVCAR-3, 47.1 µM (inactive); in the assay with MDA-MB-231, 30.1 µM (inactive); with K562, 26.4 µM (inactive). Moreover, the GI50 is 23.2 µM (inactive) in the assay on T47D; 40.4 µM (inactive) with MCF7; 51.5 µM (inactive) in the assay with A498; > 100 µM (inactive) in the assay on OVCAR-5; 22.8 µM (inactive) in the assay on HCT-116; 28.4 µM (inactive) in the assay on CCRF-CEM. The GI50 with HT-29 was 24.7 µM (inactive); in the assay with 786-0, 48.8 µM (inactive); in the assay with IGROV-1, 52.5 µM (inactive); in the assay with NCI-H460, 30.8 µM (inactive); in the assay on SNB-75 it was 24.9 µM (inactive); in the assay with SF-539 it was 56.4 µM (inactive).

As for `SC1=NNC2(C(S)=N1)c1ccccc1-c1ccccc12`, the GI50 was 0.394 µM (active) in the assay on Hs-578T; > 10 µM (inactive) with DU-145; > 10 µM (inactive) in the assay on SF-268; > 10 µM (inactive) in the assay on MDA-MB-231; > 10 µM (inactive) in the assay on K562; 4.83 µM (inactive) in the assay with T47D. Also, the GI50 in the assay with MCF7 was 5.37 µM (inactive); in the assay with A498 it was 0.697 µM (active); in the assay with CCRF-CEM, > 10 µM (inactive); in the assay on HT-29, > 10 µM (inactive); with 786-0, > 10 µM (inactive); in the assay on UACC-62, > 10 µM (inactive). For the same molecule, the GI50 in the assay with IGROV-1, in the assay on NCI-H460, in the assay with SNB-75 and with SF-539 was > 10 µM (inactive) each time.

Turning to `O=C1C(Cl)=C(Cl)C(=O)C(CCNc2nccs2)=C1Cl`, the GI50 is 33.5 µM (inactive) in the assay with Hs-578T; 58.7 µM (inactive) in the assay on DU-145; 18.5 µM (inactive) in the assay on PC-3; 38.6 µM (inactive) with SF-268; 25.8 µM (inactive) with OVCAR-3; 22.3 µM (inactive) in the assay with K562. For the same molecule, the GI50 in the assay on T47D was 43.5 µM (inactive); in the assay on MCF7, 33 µM (inactive); in the assay with OVCAR-5 it was 44.3 µM (inactive); in the assay on HCT-116 it was 28.2 µM (inactive); in the assay with CCRF-CEM, 0.335 µM (active); with HT-29, 35.2 µM (inactive). Moreover, the GI50 was 23.3 µM (inactive) with 786-0; 20.7 µM (inactive) in the assay on UACC-62; 14.8 µM (inactive) in the assay with IGROV-1; > 100 µM (inactive) with NCI-H460; 23.3 µM (inactive) with SNB-75; 33.7 µM (inactive) in the assay on SF-539.

The record behind these values is ChEMBL document CHEMBL1201862, “PubChem BioAssay data set” (2004).
